Experimental data reported in BindingDB's records for doi:10.1016/j.bmc.2021.116220 (University of Colorado Anschutz Medical Campus, 2021).

test: Inhibition of RSK2 in human MOLM-13 assessed as reduction in cell viability measured after 72 hrs by MTS assay

Structure (SMILES)	EC50 [nM]
CC(C)CCn1ccc2cnc(Nc3cc(F)c(O)c(F)c3)nc21	1300
Oc1c(F)cc(Nc2ncc3ncn(-c4ccc(CCN5CCOCC5)cc4)c3n2)cc1F	1900
CC(C)CCn1cnc2cnc(Nc3cc(F)c(O)c(F)c3)nc21	970
CN1CCN(c2ccc(-n3ccc4cnc(Nc5cc(F)c(O)c(F)c5)nc43)cc2)CC1	70
COC(=O)CCCc1ccc(-n2cnc3cnc(Nc4cc(F)c(O)c(F)c4)nc32)cc1	13900
Oc1c(F)cc(Nc2ncc3ccn(-c4ccc(N5CCOCC5)cc4)c3n2)cc1F	230
